Test results taken from US9278962B2 (Cytokinetics, Inc., priority 2011, dated 2016).

Test system: rabbit skeletal myofibrils (approximately 90% fast fibers)
Assay: Activation of fast skeletal myofibrils (PUMA coupled-enzyme ATPase assay, AC1.4)
Format: biochemical
Details: concentration at which the compound increased enzymatic activity by 40%, calcium at pCa25

| SMILES | Mean AC1.4 (Table 2) | further results |
| --- | --- | --- |
| CCOC(=O)c1ccc2nc(NCC(C)(C)c3ccc(F)cc3)sc2c1 [ethyl 2-(2-(4-fluorophenyl)-2-methylpropylamino)benzo[d] thiazole-6-carboxylate] |  | Mean AC1.4 (Table 4): B (B=1-10 uM) |
| CC(C)(CNc1nc2c(C#N)cc(C(N)=O)cc2s1)c1ccc(F)cc1 [4-cyano-2-(2-(1-fluorophenyl)-2-methylpropylamino)benzo[d] thiazole-6-carboxamide] |  | Mean AC1.4 (Table 4): A (A=<1 uM) |
| Cc1ccc(F)c(-c2nnc(NC[C@]3(c4ncccc4F)C[C@H](F)C3)s2)c1 [N-((3-fluoro-1-(3-fluoropyridin-2-yl)cyclobutyl)methyl)-5-(2-fluoro-5-methylphenyl)-1,3,4-thiadiazol-2-amine] |  | Mean AC1.4 (Table 3): A (A=<1 uM) |
| COc1cccc(Cc2nsc(N(C)CC(C)(C)c3ccc(F)cc3)n2)c1 [[2-(4-fluorophenyl)-2-methylpropyl]{3-[(3-methoxyphenyl)methyl](1,2,4-thiadiazol-5-yl)}methylamine] | D (D=>20 uM) |  |
| CC(C)(CNc1nc(Cc2ccc(O)cc2)ns1)c1ccc(Cl)cc1 [4-[(5-{[2-(4-chlorophenyl)-2-methylpropyl]amino}-1,2,4-thiadiazol-3-yl)methyl]phenol] | A (A=<1 uM) |  |
| Cn1nc(NC2(c3ncccc3F)CCC2)nc1-c1cc(C#N)ccc1F [4-fluoro-3-(5-(1-(3-fluoropyridin-2-yl)cyclobutylamino)-2-methyl-2H-1,2,4-triazol-3-yl)benzonitrile] |  | Mean AC1.4 (Table 5): D (D=>20 uM) |
| O=C(Nc1ccn(-c2ccccc2)n1)C1(c2ncccc2F)CCC1 [1-(3-fluoropyridin-2-yl)-N-(1-phenyl-1H-pyrazol-3-yl)cyclobutanecarboxamide] |  | Mean AC1.4 (Table 5): D (D=>20 uM) |
| COc1cccc(Cc2nsc(NCCc3ccc(Cl)c(Cl)c3)n2)c1 [[2-(3,4-dichlorophenyl)ethyl]{3-[(3-methoxyphenyl)methyl](1,2,4-thiadiazol-5-yl)}amine] | B (B=1-10 uM) |  |
| CC(C)(CNc1nnc(-c2cc(Br)ccc2F)s1)c1ncccc1F [5-(5-bromo-2-fluorophenyl)-N-(2-(3-fluoropyridin-2-yl)-2-methylpropyl)-1,3,4-thiadiazol-2-amine] |  | Mean AC1.4 (Table 3): A (A=<1 uM) |
| CC(C)(CNc1nc(CCC(=O)N2CCC(O)CC2)ns1)c1ccc(F)cc1 [3-(5-{[2-(4-fluorophenyl)-2-methylpropyl]amino}(1,2,4-thiadiazol-3-yl))-1-(4-hydroxypiperidyl)propan-1-one] | D (D=>20 uM) |  |
| Fc1cccnc1C1(CNc2nc3ccc(Cl)cc3s2)CCC1 [6-chloro-N-((1-(3-fluoropyridin-2-yl)cyclobutyl)methyl)benzo[d] thiazol-2-amine] |  | Mean AC1.4 (Table 4): B (B=1-10 uM) |
| NC(=O)c1ccc(F)c(-c2nnc(NC3(c4ncccc4F)CCC3)[nH]2)c1 [4-fluoro-3-(5-(1-(3-fluoropyridin-2-yl)cyclobutylamino)-4H-1,2,4-triazol-3-yl)benzamide] |  | Mean AC1.4 (Table 5): D (D=>20 uM) |
| COc1cccc(Cc2nsc(NCCc3ccc(Cl)cc3)n2)c1 [[2-(4-chlorophenyl)ethyl]{3-[(3-methoxyphenyl)methyl](1,2,4-thiadiazol-5-yl)}amine] | B (B=1-10 uM) |  |
| Fc1cccnc1C1(CNc2ncc(-c3ccccc3)s2)CCC1 [N-((1-(3-fluoropyridin-2-yl)cyclobutyl)methyl)-5-phenylthiazol-2-amine] |  | Mean AC1.4 (Table 5): A (A=<1 uM) |
| CN(C)Cc1nsc(NCC(C)(C)c2ccc(F)cc2)n1 [[(5-{[2-(4-fluorophenyl)-2-methylpropyl]amino}(1,2,4-thiadiazol-3-yl))methyl]dimethylamine] | D (D=>20 uM) |  |
| CC(C)(CNc1nc(Cc2cccc(O)c2)ns1)c1ccc(F)cc1 [3-[(5-{[2-(4-fluorophenyl)-2-methylpropyl]amino}-1,2,4-thiadiazol-3-yl)methyl]phenol] | A (A=<1 uM) |  |
| NC(=O)c1cccc2nc(NC[C@]3(c4ncccc4F)C[C@H](F)C3)sc12 [2-((3-fluoro-1-(3-fluoropyridin-2-yl)cyclobutyl)methylamino)benzo[d] thiazole-7-carboxamide] |  | Mean AC1.4 (Table 4): D (D=>20 uM) |
| CC(C)(CNc1nc(CNCCO)ns1)c1ccc(F)cc1 [2-{[(5-{[2-(4-fluorophenyl)-2-methylpropyl]amino}-1,2,4-thiadiazol-3-yl)methyl]amino}ethan-1-ol] | D (D=>20 uM) |  |
| COc1cccc(Cc2nsc(NCCc3cccc(F)c3)n2)c1 [[2-(3-fluorophenyl)ethyl]{3-[(3-methoxyphenyl)methyl](1,2,4-thiadiazol-5-yl)}amine] | C (C=10-20 uM) |  |
| Cc1nsc(NC(=O)C(C)(C)c2ccc(F)cc2)n1 [2-(4-fluorophenyl)-2-methyl-N-(3-methyl(1,2,4-thiadiazol-5-yl))propanamide] | D (D=>20 uM) |  |
| N#Cc1ccc(Cl)c(-c2nnc(NC[C@]3(c4ncccc4F)C[C@H](F)C3)s2)c1 [4-chloro-3-(5-(((trans)-3-fluoro-1-(3-fIuoropyridin-2-yl)cyclobutyl)methylamino)-1,3,4-thiadiazol-2-yl)benzonitrile] |  | Mean AC1.4 (Table 3): A (A=<1 uM) |

| SMILES | Mean AC1.4 (Table 2) | further results |
| --- | --- | --- |
| CC(C)(CNc1nsc(-c2cccc(C(N)=O)c2)n1)c1ccc(F)cc1 [3-(3-{[2-(4-Fluorophenyl)-2-methylpropyl]amino}-1,2,4-thiadiazol-5-yl)benzamide] | B (B=1-10 uM) |  |
| Fc1cccnc1[C@]1(CNc2nnc(-c3ccccn3)s2)C[C@@H](F)C1 [N-((3-fluoro-1-(3-fluoropyridin-2-yl)cyclobutyl)methyl)-5-(pyridin-2-yl)-1,3,4-thiadiazol-2-amine] |  | Mean AC1.4 (Table 3): B (B=1-10 uM) |
| CC(C)(CNc1nc(CNCCCO)ns1)c1ccc(F)cc1 [3-{[(5-{[2-(4-fluorophenyl)-2-methylpropyl]amino}-1,2,4-thiadiazol-3-yl)methyl]amino}propan-1-ol] | D (D=>20 uM) |  |
| CC(C)(O)c1ccc2nc(NCC(C)(C)c3ccc(F)cc3)sc2c1 [2-(2-(2-(4-fluorophenyl)-2-methylpropylamino)benzo[d]thiazol-6-yl)propan-2-ol] |  | Mean AC1.4 (Table 4): A (A=<1 uM) |
| COc1cccc(C2(CNc3nc4ccc(C#N)cc4s3)CCC2)n1 [2-((1-(6-methoxypyridin-2-yl)cyclobutyl)methylamino)benzo[d] thiazole-6-carbonitrile] |  | Mean AC1.4 (Table 4): B (B=1-10 uM) |
| CC(C)(CNc1nc(CCC(=O)O)ns1)c1ccc(F)cc1 [3-(5-{[2-(4-fluorophenyl)-2-methylpropyl]amino}-1,2,4-thiadiazol-3-yl)propanoic acid] | D (D=>20 uM) |  |
| Fc1cccnc1C1(CNc2cnc(-c3ccccc3)s2)CCC1 [N-((1-(3-fluoropyridin-2-yl)cyclobutyl)methyl)-2-phenylthiazol-5-amine] |  | Mean AC1.4 (Table 5): D (D=>20 uM) |
| CC(C)(CNc1nc(Cc2cccc(O)c2)ns1)c1ccc(Cl)cc1 [3-[(5-{[2-(4-chlorophenyl)-2-methylpropyl]amino}-1,2,4-thiadiazol-3-yl)methyl]phenol] | A (A=<1 uM) |  |
| CC(C)(CNc1nc2c(Cl)cc(C(N)=O)cc2s1)c1ccc(F)cc1 [4-chloro-2-(2-(4-fluorophenyl)-2-methylpropylamino)benzo[d] thiazole-6-carboxamide] |  | Mean AC1.4 (Table 4): A (A=<1 uM) |
| N#Cc1cccc(-c2nnc(NC[C@]3(c4ncccc4F)C[C@@H](F)C3)s2)c1 [3-(5-(((cis)3-fluoro-1-(3-fluoropyridin-2-yl)cyclobutyl)methylamino)-1,3,4-thiadiazol-2-yl)benzonitrile] |  | Mean AC1.4 (Table 3): B (B=1-10 uM) |
| COCCCc1nsc(NCC(C)(C)c2ccc(F)cc2)n1 [[2-(4-fluorophenyl)-2-methylpropyl][3-(3-methoxypropyl)(1,2,4-thiadiazol-5-yl)]amine] | B (B=1-10 uM) |  |
| CN(CCO)c1nsc(NCC(C)(C)c2ccc(F)cc2)n1 | D (D=>20 uM) |  |
| Cc1ccc(Cc2nsc(NCCc3ccc(Cl)cc3)n2)cc1 [[2-(4-chlorophenyl)ethyl]{3-[(4-methylphenyl)methyl](1,2,4-thiadiazol-5-yl)}amine] | C (C=10-20 uM) |  |
| CC(C)(CNc1nc(-c2cccc(O)c2)ns1)c1ccc(F)cc1 [3-(5-{[2-(4-fluorophenyl)-2-methylpropyl]amino}-1,2,4-thiadiazol-3-yl)phenol] | A (A=<1 uM) |  |
| Fc1cccnc1C1(CNc2noc(-c3ccccc3)n2)CCC1 [N-((1-(3-fluoropyridin-2-yl)cyclobutyl)methyl)-5-phenyl-1,2,4-oxadiazol-3-amine] |  | Mean AC1.4 (Table 5): D (D=>20 uM) |
| Cn1cc(-c2nnc(NC[C@]3(c4ncccc4F)C[C@H](F)C3)s2)cn1 [N-((3-fluoro-1-(3-fluoropyridin-2-yl)cyclobutyl)methyl)-5-(1-methyl-1H-pyrazol-4-yl)-1,3,4-thiadiazol-2-amine] |  | Mean AC1.4 (Table 3): D (D=>20 uM) |
| C[C@H](CNc1nc(-c2ccc(C(N)=O)cc2)ns1)c1ccc(F)cc1 [4-(5-{[(2S)-2-(4-fluorophenyl)propyl]amino}-1,2,4-thiadiazol-3-yl)benzamide] | A (A=<1 uM) |  |
| CNC(=O)c1cccc(-c2nsc(NCC(C)(C)c3ccc(F)cc3)n2)c1 [[3-(5-{[2-(4-fluorophenyl)-2-methylpropyl]amino}(1,2,4-thiadiazol-3-yl))phenyl]-N-methylcarboxamide] | A (A=<1 uM) |  |
| COc1ccc(CCNc2nc(Cc3ccc(C)cc3)ns2)cc1 [[2-(4-methoxyphenyl)ethyl]{3-[(4-methylphenyl)methyl](1,2,4-thiadiazol-5-yl)}amine] | D (D=>20 uM) |  |
| COCCNc1nsc(NCC(C)(C)c2ccc(F)cc2)n1 [[2-(4-fluorophenyl)-2-methylpropyl]{3-[(2-methoxyethyl)amino](1,2,4-thiadiazol-5-yl)}amine] | D (D=>20 uM) |  |

More lines, main results first:

| Mean AC1.4 (Table 2) | SMILES | further results |
| --- | --- | --- |
| B (B=1-10 uM) | CC(C)(CNc1nc(-c2cccc(C#N)c2)ns1)c1ccc(F)cc1 [3-(5-{[2-(4-fluorophenyl)-2-methylpropyl]amino}-1,2,4-thiadiazol-3-yl)benzenecarbonitrile] |  |
| C (C=10-20 uM) | COc1cccc(Cc2nsc(NCCc3cccc(Cl)c3)n2)c1 [[2-(3-chlorophenyl)ethyl]{3-[(3-methoxyphenyl)methyl](1,2,4-thiadiazol-5-yl)}amine] |  |
